Results from BindingDB's records for doi:10.1021/jm00394a026 (Wyeth Laboratories, 1987).

Molecular target: Arachidonate 5-lipoxygenase (Rattus norvegicus)
Assay: Ability to inhibit 5-lipoxygenase in rat

CN1C[C@@H](c2cccc(OCc3ccc4ccccc4n3)c2)OC1=O
IC50: 19.6 µM
